Several values for one entry are separate records, joined by “and”; a condition that tells them apart may be missing. Equal entries are not always repeated. Inconclusive results and toxic doses are left out. Cut-off read from the data, not from the text of the source: active = T/C of 150% or more; inactive = T/C below 125%.
Tested on: L1210 leukemia ip in BDF1 mice, survival T/C
Test: NCI In Vivo Anticancer Drug Screen. Data for tumor model L1210 Leukemia (intraperitoneal) in B6D2F1 (BDF1) mice
Conditions: endpoint: mean survival time, higher = longer survival
Outline: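 Value reflects the ratio of survival in compound-treated mice to survival in vehicle-treated controls, with both groups carrying the same transplanted tumor.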

[1] = dose: 75.0 mg/kg/injection, schedule: Q01DX001 (ip), vehicle: saline
[2] = dose: 150.0 mg/kg/injection, schedule: Q01DX001 (ip), vehicle: saline
[3] = dose: 100.0 mg/kg/injection, schedule: Q04DX003 (ip), vehicle: saline with Tween-80
[4] = dose: 200.0 mg/kg/injection, schedule: Q04DX003 (ip), vehicle: saline with Tween-80
[5] = dose: 400.0 mg/kg/injection, schedule: Q04DX003 (ip), vehicle: saline with Tween-80
[6] = dose: 100.0 mg/kg/injection, schedule: Q04DX003 (ip), vehicle: Klucel (hydroxypropylcellulose) (HPC)
[7] = dose: 200.0 mg/kg/injection, schedule: Q04DX003 (ip), vehicle: Klucel (hydroxypropylcellulose) (HPC)
[8] = dose: 400.0 mg/kg/injection, schedule: Q04DX003 (ip), vehicle: Klucel (hydroxypropylcellulose) (HPC)
[9] = dose: 50.0 mg/kg/injection, schedule: Q01DX001 (ip), vehicle: carboxymethylcellulose (CMC)
[10] = dose: 100.0 mg/kg/injection, schedule: Q01DX001 (ip), vehicle: carboxymethylcellulose (CMC)
[11] = dose: 200.0 mg/kg/injection, schedule: Q01DX001 (ip), vehicle: carboxymethylcellulose (CMC)
[12] = dose: 400.0 mg/kg/injection, schedule: Q01DX001 (ip), vehicle: carboxymethylcellulose (CMC)
[13] = dose: 5.0 mg/kg/injection, schedule: Q01DX001 (ip), vehicle: saline
[14] = dose: 10.0 mg/kg/injection, schedule: Q01DX001 (ip), vehicle: saline
[15] = dose: 20.0 mg/kg/injection, schedule: Q01DX001 (ip), vehicle: saline
[16] = dose: 100.0 mg/kg/injection, schedule: Q04DX002 (ip), vehicle: Klucel (hydroxypropylcellulose) (HPC)
[17] = dose: 200.0 mg/kg/injection, schedule: Q04DX002 (ip), vehicle: Klucel (hydroxypropylcellulose) (HPC)
[18] = dose: 100.0 mg/kg/injection, schedule: Q04DX003 (ip), vehicle: saline
[19] = dose: 100.0 mg/kg/injection, schedule: Q01DX009 (ip), vehicle: saline with Tween-80
[20] = dose: 200.0 mg/kg/injection, schedule: Q01DX009 (ip), vehicle: saline with Tween-80

Measured: T/C

CCOC(=N)N1Cc2ccccc2CCc2ccccc2C1
inactive: dose: 6.25 mg/kg/injection, schedule: Q01DX009 (ip), vehicle: Klucel (hydroxypropylcellulose) (HPC) 95 % of control | dose: 12.5 mg/kg/injection, schedule: Q01DX009 (ip), vehicle: Klucel (hydroxypropylcellulose) (HPC) 101 % of control | dose: 25.0 mg/kg/injection, schedule: Q01DX009 (ip), vehicle: Klucel (hydroxypropylcellulose) (HPC) 101 % of control | dose: 25.0 mg/kg/injection, schedule: Q04DX002 (ip), vehicle: Klucel (hydroxypropylcellulose) (HPC) 102 % of control | dose: 50.0 mg/kg/injection, schedule: Q04DX002 (ip), vehicle: Klucel (hydroxypropylcellulose) (HPC) 97 % of control

C[N+](C)(C)C1CCCCC1
inactive: [1] 110 % of control and 106 % of control | [2] 105 % of control and 106 % of control

CC(=O)N(CC(=O)O)c1ccccc1
inactive: [3] 101 % of control | [4] 103 % of control | [5] 98 % of control

Cc1ccc(NCN2C(=O)c3ccccc3C2=O)c(C)c1
inactive: [6] 105 % of control | [7] 106 % of control | [8] 94 % of control

CCCCCC(=O)Oc1ccccc1C(=O)O
inactive: [9] 100 % of control | [10] 100 % of control | [11] 97 % of control | [12] 92 % of control

c1nc([N+]23CCC(CC2)CC3)c2[nH]cnc2n1
inactive: [13] 111 % of control | [14] 103 % of control | [15] 113 % of control | dose: 40.0 mg/kg/injection, schedule: Q01DX001 (ip), vehicle: saline 97 % of control | dose: 80.0 mg/kg/injection, schedule: Q01DX001 (ip), vehicle: saline 108 % of control

Cc1cc(C(C)(CC(C)C)c2ccc(O)c(C)c2)ccc1O
inactive: dose: 25.0 mg/kg/injection, schedule: Q01DX009 (ip), vehicle: gum acacia 96 % of control | dose: 50.0 mg/kg/injection, schedule: Q01DX009 (ip), vehicle: gum acacia 98 % of control | dose: 100.0 mg/kg/injection, schedule: Q01DX009 (ip), vehicle: gum acacia 93 % of control and 89 % of control | dose: 100.0 mg/kg/injection, schedule: Q04DX003 (ip), vehicle: gum acacia 97 % of control | dose: 200.0 mg/kg/injection, schedule: Q04DX003 (ip), vehicle: gum acacia 93 % of control | dose: 400.0 mg/kg/injection, schedule: Q04DX003 (ip), vehicle: gum acacia 90 % of control

CC(C)(C)OC(=O)C1(c2ccccc2)OC1c1ccccc1 (centres undefined)
inactive: [6] 105 % of control | [7] 100 % of control | [8] 96 % of control

CSc1nc(N)c(N=Nc2ccc(S(=O)(=O)Nc3cc(C)nc(C)n3)cc2)c(=O)[nH]1
inactive: [10] 103 % of control | [11] 95 % of control | [12] 97 % of control

O=C(Nc1cccc2ccccc12)c1cccc([N+](=O)[O-])c1C(=O)O
inactive: [16] 99 % of control | [17] 92 % of control | dose: 400.0 mg/kg/injection, schedule: Q04DX002 (ip), vehicle: Klucel (hydroxypropylcellulose) (HPC) 96 % of control

CC1(C)CC(=NNC2=NC=NC3=NC=NC32)CC(C)(C)N1O (centres undefined)
inactive: dose: 25.0 mg/kg/injection, schedule: Q04DX003 (ip), vehicle: saline 98 % of control | dose: 50.0 mg/kg/injection, schedule: Q04DX003 (ip), vehicle: saline 102 % of control | [18] 102 % of control

O=C1CCC(c2ccc3c(c2)CCCC3)O1 (centres undefined)
inactive: dose: 50.0 mg/kg/injection, schedule: Q01DX009 (ip), vehicle: saline with Tween-80 97 % of control | [19] 95 % of control | [3] 105 % of control | [20] 90 % of control | [4] 105 % of control | [5] 95 % of control

CCOC(=O)c1nc(SCc2ccccc2)n(Cc2ccccc2)c1C(=O)OCC
inactive: dose: 100.0 mg/kg/injection, schedule: Q01DX001 (ip), vehicle: saline with Tween-80 109 % of control | [19] 104 % of control and 107 % of control | dose: 100.0 mg/kg/injection, schedule: Q04DX002 (ip), vehicle: saline with Tween-80 102 % of control and 108 % of control | [3] 91 % of control | dose: 200.0 mg/kg/injection, schedule: Q01DX001 (ip), vehicle: saline with Tween-80 101 % of control | [20] 102 % of control and 111 % of control | dose: 200.0 mg/kg/injection, schedule: Q04DX002 (ip), vehicle: saline with Tween-80 101 % of control and 87 % of control | [4] 107 % of control | dose: 400.0 mg/kg/injection, schedule: Q01DX001 (ip), vehicle: saline with Tween-80 95 % of control | dose: 400.0 mg/kg/injection, schedule: Q01DX009 (ip), vehicle: saline with Tween-80 101 % of control and 102 % of control | dose: 400.0 mg/kg/injection, schedule: Q04DX002 (ip), vehicle: saline with Tween-80 97 % of control and 104 % of control | [5] 101 % of control

O=C1CCC2CCC(CC2)O1
inactive: [13] 119 % of control | [14] 92 % of control | [15] 97 % of control

COC(=O)C/C(=C\c1ccc(OC)c(OC)c1)C(=O)OC
inactive: dose: 100.0 mg/kg/injection, schedule: Q01DX009 (ip), vehicle: Klucel (hydroxypropylcellulose) (HPC) 100 % of control | [6] 91 % of control | dose: 200.0 mg/kg/injection, schedule: Q01DX009 (ip), vehicle: Klucel (hydroxypropylcellulose) (HPC) 94 % of control | [7] 95 % of control | dose: 400.0 mg/kg/injection, schedule: Q01DX009 (ip), vehicle: Klucel (hydroxypropylcellulose) (HPC) 103 % of control | [8] 96 % of control

CCOC(=O)CCCc1ccccc1
inactive: [3] 107 % of control | [4] 90 % of control | [5] 93 % of control

Cc1ccc(NC(=O)C(Br)C(Br)C(=O)O)cc1Cl (centres undefined)
inactive: [19] 107 % of control | [20] 97 % of control

N#CC1CNCCC1=N (centres undefined)
inactive: [18] 96 % of control | dose: 200.0 mg/kg/injection, schedule: Q04DX003 (ip), vehicle: saline 96 % of control | dose: 400.0 mg/kg/injection, schedule: Q04DX003 (ip), vehicle: saline 100 % of control

COc1ccc(NC(=O)Oc2ccccc2C(N)=O)c(Cl)c1
inactive: [16] 96 % of control | [17] 104 % of control

O=C(OC1CC2CC1C1CCCCC21)c1ccc([N+](=O)[O-])cc1 (centres undefined)
inactive: [9] 94 % of control | [10] 105 % of control | [11] 100 % of control | [12] 96 % of control

Cc1ccccc1NC(N)=O
inactive: [6] 110 % of control | [7] 105 % of control | [8] 103 % of control

NC(N)=NCCCCNCCCN=C(N)N
inactive: [1] 98 % of control | [2] 107 % of control

O=C1NC(c2ccccc2)C(c2ccccc2)N1 (centres undefined)
inactive: dose: 100.0 mg/kg/injection, schedule: Q01DX001 (ip), vehicle: saline 97 % of control | dose: 200.0 mg/kg/injection, schedule: Q01DX001 (ip), vehicle: saline 100 % of control | dose: 400.0 mg/kg/injection, schedule: Q01DX001 (ip), vehicle: saline 97 % of control

— PubChem BioAssay AID248 (DTP/NCI, 2004)
